The first assay has as its target Angiotensin II receptor (AT-1) type-1 (Rattus norvegicus) (UniProt P29089+P25095). Nature of the assay: Antihypertensive activity in renal hypertensive rats (RHR) at 30 mg/Kg dose after oral administration. Format: functional, organism-based.
Consider `CCCCc1ncc(/C=C2/C(=O)NC(=O)N2CCCC)n1Cc1ccc(C(=O)O)cc1`, for which the Maximum blood pressure change is -17%. Still for that read-out and setting: to `CCCCc1ncc(/C=C2/C(=O)NC(=O)N2CCCC)n1Cc1ccc(-c2nn[nH]n2)cc1` belongs 0%. `CCCCc1ncc(/C=C2/C(=O)N(CCCC)C(=O)N2Cc2ccsc2)n1Cc1ccc(C(=O)OC)cc1`: the Maximum blood pressure change is -36%. Same read-out and setting: to `CCCCc1ncc(/C=C2/C(=O)N(CCCC)C(=O)N2Cc2csc(C)n2)n1Cc1ccc(C2(C(=O)O)CCCC2)cc1` belongs -16%.

In the next assay the target is T1, Angiotensin II receptor (AT-1) type-1 (Rattus norvegicus, UniProt P29089+P25095).
T1 sequence (P29089 whole entry): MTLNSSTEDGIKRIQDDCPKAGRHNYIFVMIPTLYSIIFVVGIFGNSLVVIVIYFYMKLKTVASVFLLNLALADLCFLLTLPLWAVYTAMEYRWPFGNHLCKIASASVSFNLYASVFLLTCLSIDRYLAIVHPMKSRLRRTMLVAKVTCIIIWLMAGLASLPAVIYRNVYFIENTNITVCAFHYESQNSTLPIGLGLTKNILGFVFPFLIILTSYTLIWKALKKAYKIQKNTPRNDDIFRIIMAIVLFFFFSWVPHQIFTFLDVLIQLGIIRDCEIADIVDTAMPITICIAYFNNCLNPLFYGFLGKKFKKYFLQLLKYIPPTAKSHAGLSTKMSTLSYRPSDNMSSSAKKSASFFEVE
T1 sequence (P25095 whole entry): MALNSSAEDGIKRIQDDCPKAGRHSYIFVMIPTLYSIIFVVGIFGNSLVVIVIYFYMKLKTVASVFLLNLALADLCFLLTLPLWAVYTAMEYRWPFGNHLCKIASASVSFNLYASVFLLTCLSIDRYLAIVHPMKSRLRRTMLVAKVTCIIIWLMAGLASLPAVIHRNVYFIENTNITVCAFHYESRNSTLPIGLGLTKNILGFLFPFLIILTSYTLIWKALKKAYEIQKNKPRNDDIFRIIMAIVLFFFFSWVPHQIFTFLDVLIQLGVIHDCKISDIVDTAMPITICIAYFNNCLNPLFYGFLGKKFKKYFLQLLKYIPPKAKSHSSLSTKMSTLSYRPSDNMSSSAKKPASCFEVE
The experiment in a line: Binding affinity expressed as IC50 to the Angiotensin II receptor, type 1, from rat liver membrane.
Consider `CCCCc1ncc(/C=C2/C(=O)N(CCCC)C(=O)N2Cc2ccc(C)cc2)n1Cc1ccc(C(=O)OC)cc1`, for which the IC50 is given as 34.6 nM. The same measure, in the same setting: to `CCCCc1ncc(/C=C2\C(=O)N(CCCC)C(=O)N2CCCC)n1Cc1ccc(C(=O)O)cc1` belongs 0.5 nM; to `CCCCc1ncc(/C=C2/C(=O)NC(=O)N2CCCC)n1Cc1ccc(C(=O)O)cc1`, 2.8 nM; to `CCCCc1ncc(/C=C2/C(=O)NC(=O)N2CCCC)n1Cc1ccc(-c2nn[nH]n2)cc1`, 7.1 nM. Consider `CCCCc1ncc(/C=C2/C(=O)N(CCCC)C(=O)N2Cc2ccc(Br)s2)n1Cc1ccc(C(=O)OC)cc1`, for which the IC50 was found to be 17.8 nM.

`CCCCc1ncc(/C=C2/C(=O)N(CCCO)C(=O)N2Cc2csc(C)n2)n1Cc1ccc(C(=O)OC)cc1` had an IC50 of 47.9 nM.

`CCCCc1ncc(/C=C2/C(=O)N(CCCC)C(=O)N2Cc2ccc(C#N)cc2)n1Cc1ccc(C(=O)OC)cc1` registered an IC50 of 11.1 nM. Consider `CCCCc1ncc(/C=C2\C(=O)NC(=O)N2CCCC)n1Cc1ccc(NS(=O)(=O)C(F)(F)F)cc1`, for which the IC50 is reported as 4.2 nM.

Take `CCCCc1ncc(/C=C2/C(=O)N(CCCC)C(=O)N2C(c2ccccc2)c2ccccc2)n1Cc1ccc(C(=O)OC)cc1`: the IC50 worked out at 884 nM. `CCCCc1ncc(/C=C2/C(=O)NC(=O)N2CCC(C)C)n1Cc1ccc(C(=O)O)cc1` registered an IC50 of 6.6 nM.

As to `CCCCc1ncc(/C=C2/C(=O)N(CCCC)C(=O)N2Cc2c(C)noc2C)n1Cc1ccc(C(=O)OC)cc1`, the IC50 is recorded as 198 nM. Same read-out and setting: under `CCCCc1ncc(/C=C2/C(=O)N(C)C(=O)N2Cc2csc(C)n2)n1Cc1ccc(C(=O)OC)cc1` stands 16.6 nM. The same measure, in the same setting: to `CCCCc1ncc(/C=C2\C(=O)NC(=O)N2CCCC)n1Cc1ccc(-c2nn[nH]n2)cc1` belongs 2.5 nM; to `CCCCc1ncc(/C=C2/C(=O)N(CCC)C(=O)N2Cc2csc(C)n2)n1Cc1ccc(C(=O)OC)cc1`, 9 nM. Compound `CCCCc1ncc(/C=C2\C(=O)NC(=O)N2CCC(C)C)n1Cc1ccc(C(=O)O)cc1` gave an IC50 of 4.9 nM. The compound `CCCCc1ncc(/C=C2/C(=O)N(CC)C(=O)N2Cc2csc(C)n2)n1Cc1ccc(C(=O)OC)cc1` displayed an IC50 of 11.1 nM. On the same count and under the same terms, to `CCCCc1ncc(/C=C2/C(=O)N(CCCC)C(=O)N2Cc2ccc(C(=O)OC)cc2)n1Cc1ccc(C(=O)OC)cc1` belongs 14.3 nM; to `CCCCc1ncc(/C=C2/C(=O)N(CCCC)C(=O)N2CCCC)n1Cc1ccc(-c2ccccc2C(=O)OC)cc1`, 29.6 nM; to `CCCCc1ncc(/C=C2/C(=O)N(CCCC)C(=O)N2Cc2ccc(C(F)(F)F)cc2)n1Cc1ccc(C(=O)OC)cc1`, 159 nM. Still for that read-out and setting: under `CCCCc1ncc(/C=C2/C(=O)N(CCCC)C(=O)N2Cc2ccc([N+](=O)[O-])cc2)n1Cc1ccc(C(=O)OC)cc1` stands 16.9 nM. On the same count and under the same terms, to `CCCCc1ncc(/C=C2\C(=O)N(CCCC)C(=O)N2Cc2cccs2)n1Cc1ccc(C(=O)O)cc1` belongs 0.6 nM; to `CCCCc1ncc(/C=C2/C(=O)N(CCCC)C(=O)N2Cc2csc(Br)c2)n1Cc1ccc(C(=O)OC)cc1`, 25.4 nM. The compound `CCCCc1ncc(/C=C2/C(=O)N(CCCC)C(=O)N2Cc2csc(C)n2)n1Cc1ccc(C2(C(=O)OC)CCCC2)cc1` had an IC50 of 8 nM. Take `CCCCc1ncc(/C=C2/C(=O)N(CCCC)C(=O)N2Cc2ccc(OC)cc2)n1Cc1ccc(C(=O)OC)cc1`: the IC50 was 9.8 nM.

In turn, `CCCCc1ncc(/C=C2/C(=O)N(CCCC)C(=O)N2Cc2ccc(C(=O)OC)s2)n1Cc1ccc(C(=O)OC)cc1` had an IC50 of 4.2 nM. Same read-out and setting: to `CCCCc1ncc(/C=C2/C(=O)N(CCCC)C(=O)N2Cc2cccc(Cl)c2)n1Cc1ccc(C(=O)OC)cc1` belongs 117 nM; to `CCCCc1ncc(/C=C2/C(=O)N(CCCC)C(=O)N2Cc2cccc(C)c2)n1Cc1ccc(C(=O)OC)cc1`, 18.5 nM; to `CCCCCN1C(=O)N(CCCC)C(=O)/C1=C/c1cnc(CCCC)n1Cc1ccc(C(=O)OC)cc1`, 6.1 nM.

`CCCCc1ncc(/C=C2/C(=O)N(CO)C(=O)N2Cc2csc(C)n2)n1Cc1ccc(C(=O)OC)cc1` gave an IC50 of 35.7 nM.

Compound `CCCCc1ncc(/C=C2/C(=O)N(CCCC)C(=O)N2CCc2ccsc2)n1Cc1ccc(C(=O)OC)cc1` yielded an IC50 of 14.6 nM. Same read-out and setting: under `CCCCCCN1C(=O)N(CCCC)C(=O)/C1=C/c1cnc(CCCC)n1Cc1ccc(C(=O)OC)cc1` stands 40.2 nM; under `CCCCc1ncc(/C=C2/C(=O)N(CCCC)C(=O)N2Cc2ccsc2)n1Cc1ccc(C(=O)OC)cc1`, 4.8 nM; under `CCCCc1ncc(/C=C2/C(=O)NC(=O)N2CCCC)n1Cc1ccc(-c2ccccc2C(=O)OC)cc1`, 15.9 nM. Still for that read-out and setting: under `CCCCc1ncc(/C=C2/C(=O)N(CCCC)C(=O)N2Cc2csc(C)n2)n1Cc1ccc(C2(C(=O)O)CCCC2)cc1` stands 1.9 nM; under `CCCCc1ncc(/C=C2/C(=O)N(CCCC)C(=O)N2CC2CCCCC2)n1Cc1ccc(C(=O)OC)cc1`, 3.3 nM; under `CCCCc1ncc(/C=C2/C(=O)N(CCCC)C(=O)N2Cc2ccc3ccccc3c2)n1Cc1ccc(C(=O)OC)cc1`, 104 nM. The same measure, in the same setting: under `CCCCc1ncc(/C=C2/C(=O)N(CCCC)C(=O)N2C=C(C)C)n1Cc1ccc(C(=O)OC)cc1` stands 11.1 nM; under `CCCCc1ncc(/C=C2\C(=O)NC(=O)N2Cc2ccccc2)n1Cc1ccc(C(=O)O)cc1`, 3.4 nM. In the case of `CCCCc1ncc(/C=C2\C(=O)N(CCCC)C(=O)N2Cc2csc(C)n2)n1Cc1ccc(C(=O)O)cc1`, the IC50 is reported as 1.7 nM. The same measure, in the same setting: to `CCCCc1ncc(/C=C2/C(=O)N(CCCC)C(=O)N2Cc2sccc2C)n1Cc1ccc(C(=O)OC)cc1` belongs 23.9 nM; to `CCCCc1ncc(/C=C2\C(=O)NC(=O)N2CCCC)n1Cc1ccc(-c2ccccc2C(=O)OC)cc1`, 9.9 nM; to `CCCCc1ncc(/C=C2/C(=O)N(CCCC)C(=O)N2Cc2c[nH]c(C)n2)n1Cc1ccc(C(=O)OC)cc1`, 245 nM. With `CCCCc1ncc(/C=C2/C(=O)N(CCCC)C(=O)N2Cc2c[nH]cn2)n1Cc1ccc(C(=O)OC)cc1`, the IC50 was 54.5 nM. Still for that read-out and setting: to `CCCCc1ncc(/C=C2/C(=O)N(CCCC)C(=O)N2CCc2cccs2)n1Cc1ccc(C(=O)OC)cc1` belongs 14.5 nM. On the same count and under the same terms, to `CCCCc1ncc(/C=C2/C(=O)N(CCSC)C(=O)N2Cc2csc(C)n2)n1Cc1ccc(C(=O)OC)cc1` belongs 9.6 nM; to `CCCCc1ncc(/C=C2\C(=O)NC(=O)N2CCCC)n1Cc1ccc(-c2ccccc2-c2nn[nH]n2)cc1`, 2.7 nM; to `CCCCc1ncc(/C=C2/C(=O)N(CCCC(F)(F)F)C(=O)N2Cc2csc(C)n2)n1Cc1ccc(C(=O)OC)cc1`, 70 nM.

`CCCCc1ncc(/C=C2/C(=O)N(CCCC)C(=O)N2Cc2nn[nH]n2)n1Cc1ccc(C(=O)OC)cc1` registered an IC50 of 41.7 nM. `CCCCc1ncc(/C=C2/C(=O)NC(=O)N2Cc2ccccc2)n1Cc1ccc(C(=O)O)cc1` gave an IC50 of 4 nM. Same read-out and setting: under `CCCCc1ncc(/C=C2/C(=O)N(CCCC)C(=O)N2CCc2ccccc2)n1Cc1ccc(C(=O)OC)cc1` stands 31 nM; under `CCCCc1ncc(/C=C2/C(=O)N(CCCC)C(=O)N2Cc2cc(C)on2)n1Cc1ccc(C(=O)OC)cc1`, 8.5 nM; under `CCCCc1ncc(/C=C2/C(=O)N(CCCC)C(=O)N2Cc2cc(Br)cs2)n1Cc1ccc(C(=O)OC)cc1`, 21.9 nM.

Regarding `CCCCc1ncc(/C=C2/C(=O)N(CCCC)C(=O)N2Cc2ccc(O)c(O)c2)n1Cc1ccc(C(=O)OC)cc1`, the concentration for half-maximal inhibition (IC50) came out at 4.9 nM. The same measure, in the same setting: to `CCCCc1ncc(/C=C2/C(=O)N(CCCC)C(=O)N2Cc2ccccc2)n1Cc1ccc(C(=O)OC)cc1` belongs 12.4 nM; to `CCCCc1ncc(/C=C2\C(=O)N(CCCC)C(=O)N2Cc2csc(N)n2)n1Cc1ccc(C(=O)O)cc1`, 0.5 nM; to `CCCCc1ncc(/C=C2/C(=O)N(COC)C(=O)N2Cc2csc(C)n2)n1Cc1ccc(C(=O)OC)cc1`, 47.8 nM.

For `CCCCc1ncc(/C=C2/C(=O)N(CCCC)C(=O)N2Cc2cccc[n+]2[O-])n1Cc1ccc(C(=O)OC)cc1`, the IC50 is 260 nM. `CCCCc1ncc(/C=C2/C(=O)N(CCCC)C(=O)N2CCCC(F)(F)F)n1Cc1ccc(C(=O)OC)cc1` yielded an IC50 of 6.4 nM.

In another assay the target is Angiotensin II receptor type-1 (Oryctolagus cuniculus) (UniProt P34976). The experiment in a line: Inhibition of angiotensin II induced contraction in rabbit aortic ring, activity is expressed as IC50.
Angiotensin II receptor type-1 (Oryctolagus cuniculus), sequence (P34976 whole entry, looked up): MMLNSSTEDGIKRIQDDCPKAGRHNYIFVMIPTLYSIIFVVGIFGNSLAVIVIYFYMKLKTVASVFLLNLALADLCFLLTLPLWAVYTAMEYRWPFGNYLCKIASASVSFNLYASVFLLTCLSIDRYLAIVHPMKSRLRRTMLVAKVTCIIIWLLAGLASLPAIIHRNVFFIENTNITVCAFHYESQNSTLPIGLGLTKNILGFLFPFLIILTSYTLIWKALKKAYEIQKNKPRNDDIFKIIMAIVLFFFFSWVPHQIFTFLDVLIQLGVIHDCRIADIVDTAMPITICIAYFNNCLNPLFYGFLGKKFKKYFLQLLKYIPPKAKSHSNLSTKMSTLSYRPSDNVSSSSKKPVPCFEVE
Take `CCCCc1ncc(/C=C2/C(=O)NC(=O)N2CCCC)n1Cc1ccc(C(=O)O)cc1`: the IC50 is 28 nM. On the same count and under the same terms, to `CCCCc1ncc(/C=C2/C(=O)NC(=O)N2CCCC)n1Cc1ccc(-c2nn[nH]n2)cc1` belongs 40 nM. On to `CCCCc1ncc(/C=C2/C(=O)NC(=O)N2CCC(C)C)n1Cc1ccc(C(=O)O)cc1`, for which the IC50 stood at 32 nM. The same measure, in the same setting: under `CCCCc1ncc(/C=C2\C(=O)NC(=O)N2CCC(C)C)n1Cc1ccc(C(=O)O)cc1` stands 74 nM; under `CCCCc1ncc(/C=C2\C(=O)NC(=O)N2Cc2ccccc2)n1Cc1ccc(C(=O)O)cc1`, over 100 nM; under `CCCCc1ncc(/C=C2/C(=O)NC(=O)N2Cc2ccccc2)n1Cc1ccc(C(=O)O)cc1`, 35 nM.
